# Experimental data as given in ChEMBL document CHEMBL1158532, “A novel kavalactone derivative protects against H2O2-induced PC12 cell death via Nrf2/ARE activation” (Bioorg Med Chem, 2010).
# Activity calls are given as the source filed them. The calls are words filed in the database; no cut-off is given here.
# What was measured:
# PC-12 [1] = experiment: Induction of NQO1 protein expression in rat PC12 cells at 10 uM after 24 hrs by Western blot analysis relative to control; type: functional
# PC-12 [2] = experiment: Cytotoxicity against rat PC12 cells at 100 uM after 24 hrs by WST8 assay; type: cell-based; conditions: pc-12, 24 h
# [3] = target: T1, Nuclear factor erythroid 2-related factor 2 (Rattus norvegicus) (UniProt O54968); experiment: Activation of Nrf2 in rat PC12 cells assessed as induction of translocation into nucleus at 10 uM after 24 hrs by Western blot analysis; type: functional, cell-based; conditions: PC-12
# T1 sequence (whole entry): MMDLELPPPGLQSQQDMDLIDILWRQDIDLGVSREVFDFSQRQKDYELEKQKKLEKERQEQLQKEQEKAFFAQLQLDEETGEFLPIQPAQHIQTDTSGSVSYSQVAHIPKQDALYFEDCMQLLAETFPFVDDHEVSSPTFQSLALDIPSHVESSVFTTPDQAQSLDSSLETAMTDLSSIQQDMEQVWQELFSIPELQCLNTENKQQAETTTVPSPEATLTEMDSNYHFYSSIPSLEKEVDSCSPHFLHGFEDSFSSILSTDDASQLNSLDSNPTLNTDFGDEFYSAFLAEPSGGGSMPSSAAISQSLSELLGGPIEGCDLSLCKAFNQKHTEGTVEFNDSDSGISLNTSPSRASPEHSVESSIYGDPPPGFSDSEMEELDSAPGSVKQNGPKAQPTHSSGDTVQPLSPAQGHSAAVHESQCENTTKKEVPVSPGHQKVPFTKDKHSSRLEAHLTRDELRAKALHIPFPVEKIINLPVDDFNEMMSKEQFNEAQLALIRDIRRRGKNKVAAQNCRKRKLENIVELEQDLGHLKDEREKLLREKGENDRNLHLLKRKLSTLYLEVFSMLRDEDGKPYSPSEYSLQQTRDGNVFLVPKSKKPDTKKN
# PC-12 [4] = experiment: Induction of HO-1 protein expression in rat PC12 cells at 10 uM after 3 hrs by Western blot analysis in presence of 20 uM MEK1/2 inhibitor PD-98059; type: functional, cell-based
# [5] = target: T1, Nuclear factor erythroid 2-related factor 2 (Rattus norvegicus); experiment: Activation of Nrf2 in rat PC12 cells at 10 uM after 24 hrs by antioxidant response element-driven luciferase reporter gene assay relative to kawain; type: functional, cell-based; conditions: PC-12
# PC-12 [6] = experiment: Induction of HO-1 protein expression in rat PC12 cells at 10 uM after 24 hrs by Western blot analysis relative to control; type: functional
# PC-12 [7] = experiment: Induction of Nrf2 release in rat PC12 cells assessed as increase in intracellular ROS level at 10 uM after 1 hr by CM-H2-DCFDA staining-based fluorescence assay; type: functional, cell-based
# [8] = target: T1, Nuclear factor erythroid 2-related factor 2 (Rattus norvegicus); experiment: Activation of Nrf2 in rat PC12 cells assessed as induction of translocation into nucleus at 10 uM after 30 mins by Western blot analysis; type: functional, cell-based; conditions: PC-12
# [9] = target: T2, Mitogen-activated protein kinase 1 and 3 (ERK2 and ERK1) (Rattus norvegicus) (UniProt P63086+P21708); experiment: Increase in Erk1/2 phosphorylation in rat PC12 cells at 10 uM after 5 mins by Western blot analysis; type: cell-based; conditions: PC-12
# T2 sequence (P21708 whole entry, looked up): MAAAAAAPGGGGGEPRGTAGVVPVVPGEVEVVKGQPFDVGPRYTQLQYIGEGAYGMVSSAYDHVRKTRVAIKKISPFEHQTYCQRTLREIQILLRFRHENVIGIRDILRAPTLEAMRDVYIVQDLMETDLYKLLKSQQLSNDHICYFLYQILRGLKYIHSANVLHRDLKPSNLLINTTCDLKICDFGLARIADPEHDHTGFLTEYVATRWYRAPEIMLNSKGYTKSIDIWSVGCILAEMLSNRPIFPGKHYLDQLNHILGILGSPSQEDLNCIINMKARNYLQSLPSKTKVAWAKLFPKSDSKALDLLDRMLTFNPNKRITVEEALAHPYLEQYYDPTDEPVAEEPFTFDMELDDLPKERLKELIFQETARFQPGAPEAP
# T2 sequence (P63086 whole entry, looked up): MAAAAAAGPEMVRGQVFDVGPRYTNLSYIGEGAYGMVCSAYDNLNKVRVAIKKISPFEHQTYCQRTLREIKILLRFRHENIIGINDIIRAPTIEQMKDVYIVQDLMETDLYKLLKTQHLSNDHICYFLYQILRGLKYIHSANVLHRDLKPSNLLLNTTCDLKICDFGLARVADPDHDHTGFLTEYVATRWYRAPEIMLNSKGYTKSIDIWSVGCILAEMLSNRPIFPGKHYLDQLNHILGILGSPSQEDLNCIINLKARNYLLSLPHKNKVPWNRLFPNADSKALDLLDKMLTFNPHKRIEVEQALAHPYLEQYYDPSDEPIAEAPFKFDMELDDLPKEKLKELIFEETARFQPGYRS
# PC-12 [10] = experiment: Increase in NQO1 protein expression in rat PC12 cells at 10 uM after 3 hrs by Western blot analysis; type: functional, cell-based
# PC-12 [11] = experiment: Induction of HO-1 protein expression in rat PC12 cells at 10 uM after 24 hrs by Western blot analysis relative to methysticin; type: functional
# [12] = target: T1, Nuclear factor erythroid 2-related factor 2 (Rattus norvegicus); experiment: Activation of Nrf2 in rat PC12 cells at 10 uM after 24 hrs by antioxidant response element-driven luciferase reporter gene assay relative to yangonin; type: functional, cell-based; conditions: PC-12
# [13] = target: T2, Mitogen-activated protein kinase 1 and 3 (ERK2 and ERK1) (Rattus norvegicus); experiment: Increase in Erk1/2 phosphorylation in rat PC12 cells at 10 uM after 6 hrs by Western blot analysis; type: cell-based; conditions: PC-12
# [14] = target: RAC-alpha serine/threonine-protein kinase (Rattus norvegicus) (UniProt P47196); experiment: Increase in Akt phosphorylation in rat PC12 cells at 10 uM after 24 hrs by Western blot analysis; type: cell-based; conditions: PC-12
# Sequence of RAC-alpha serine/threonine-protein kinase (Rattus norvegicus) (P47196 whole entry): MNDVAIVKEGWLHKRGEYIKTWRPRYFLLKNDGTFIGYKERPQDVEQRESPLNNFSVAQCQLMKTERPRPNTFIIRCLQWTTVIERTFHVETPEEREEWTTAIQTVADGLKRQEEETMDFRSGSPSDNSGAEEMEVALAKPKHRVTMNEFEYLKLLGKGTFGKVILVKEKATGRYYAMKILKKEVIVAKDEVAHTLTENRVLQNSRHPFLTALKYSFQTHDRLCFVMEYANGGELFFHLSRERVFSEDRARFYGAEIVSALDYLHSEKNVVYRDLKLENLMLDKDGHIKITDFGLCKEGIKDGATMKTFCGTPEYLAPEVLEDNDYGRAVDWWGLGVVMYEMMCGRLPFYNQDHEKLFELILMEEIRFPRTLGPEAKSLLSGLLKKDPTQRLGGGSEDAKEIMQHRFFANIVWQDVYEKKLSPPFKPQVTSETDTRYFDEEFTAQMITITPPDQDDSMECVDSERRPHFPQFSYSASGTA
# [15] = target: T1, Nuclear factor erythroid 2-related factor 2 (Rattus norvegicus); experiment: Activation of Nrf2 in rat PC12 cells at 10 uM after 24 hrs by antioxidant response element-driven luciferase reporter gene assay relative to methysticin; type: functional, cell-based; conditions: PC-12
# PC-12 [16] = experiment: Induction of gamma-GCSc catalytic subunit protein expression in rat PC12 cells at 10 uM after 12 hrs by Western blot analysis; type: functional, cell-based
# PC-12 [17] = experiment: Induction of HO-1 protein expression in rat PC12 cells at 10 uM after 3 hrs by Western blot analysis in presence of 2.5 […] N-acetyl-cysteine; type: functional, cell-based
# PC-12 [18] = experiment: Induction of HO-1 protein expression in rat PC12 cells at 10 uM after 24 hrs by Western blot analysis relative to yangonin; type: functional
# PC-12 [19] = experiment: Neuroprotective activity against H202-induced rat PC12 cell death at 10 uM treated 24 hrs before H202 challenge measured after 24 hrs by WST8 assay; type: functional, cell-based
# PC-12 [20] = experiment: Induction of Nrf2 release in rat PC12 cells assessed as increase in intracellular ROS level at 10 uM after 3 hrs by CM-H2-DCFDA staining-based fluorescence assay; type: functional, cell-based
# PC-12 [21] = experiment: Increase in HO-1 protein expression in rat PC12 cells at 10 uM treated 24 hrs before H202 challenge measured after 24 hrs by Western blot analysis; type: functional, cell-based
# PC-12 [22] = experiment: Induction of HO-1 protein expression in rat PC12 cells at 10 uM after 3 hrs by Western blot analysis in presence of 5 uM p38 inhibitor SB-203580; type: functional, cell-based
# PC-12 [23] = experiment: Increase in p38 phosphorylation in rat PC12 cells at 10 uM after 5 mins by Western blot analysis; type: cell-based
# [24] = target: T1, Nuclear factor erythroid 2-related factor 2 (Rattus norvegicus); experiment: Activation of Nrf2 in rat PC12 cells after 24 hrs by antioxidant response element-driven luciferase reporter gene assay relative to yangonin; type: functional, cell-based; conditions: PC-12
# PC-12 [25] = experiment: Induction of gamma-GCSc catalytic subunit protein expression in rat PC12 cells at 10 uM after 24 hrs by Western blot analysis relative to control; type: functional
# PC-12 [26] = experiment: Induction of HO-1 protein expression in rat PC12 cells at 10 uM after 24 hrs by Western blot analysis relative to kawain; type: functional
# PC-12 [27] = experiment: Cytotoxicity against rat PC12 cells assessed as effect on cellular morphology at 50 to 100 uM after 24 hrs by WST8 assay; type: cell-based; conditions: pc-12, 24 h
# PC-12 [28] = experiment: Increase in HO-1 protein expression in rat PC12 cells at 10 uM after 3 hrs by Western blot analysis; type: functional, cell-based
# [29] = target: T1, Nuclear factor erythroid 2-related factor 2 (Rattus norvegicus); experiment: Activation of Nrf2 in rat PC12 cells at 10 uM after 24 hrs by antioxidant response element-driven luciferase reporter gene assay; type: functional, cell-based; conditions: PC-12
# PC-12 [30] = experiment: Induction of HO-1 protein expression in rat PC12 cells at 10 uM after 24 hrs by Western blot analysis; type: functional, cell-based
smiles,measurement,setting,value
COCc1c(OC)cc(=O)oc1/C=C/c1c(Cl)cccc1Cl,fold change (FC),PC-12 [1],1.3
same,Activity,PC-12 [2],Non-toxic
same,Activity,[3],Active
same,Activity,PC-12 [4],inactive
same,fold change (FC),[5],2
same,fold change (FC),PC-12 [6],2
same,Activity,PC-12 [7],Active
same,Activity,[8],Active
same,Activity,[9],Active
same,Activity,PC-12 [10],Active
same,fold change (FC),PC-12 [11],3
same,fold change (FC),[12],2
same,Activity,[13],inactive
same,Activity,[14],inactive
same,fold change (FC),[15],2
same,Activity,PC-12 [16],Active
same,Activity,PC-12 [17],inactive
same,fold change (FC),PC-12 [18],3
same,Activity,PC-12 [19],Active
same,Activity,PC-12 [20],inactive
same,Activity,PC-12 [21],Active
same,Activity,PC-12 [22],inactive
same,Activity,PC-12 [23],Active
same,Activity,[24],Dose-dependent effect
same,fold change (FC),PC-12 [25],2
same,fold change (FC),PC-12 [26],3
same,Activity,PC-12 [27],Toxic
same,Activity,PC-12 [28],Active
COC1=CC(=O)O[C@@H](/C=C/c2ccc3c(c2)OCO3)C1,Activity,[29],Active
same,Activity,PC-12 [30],Active
COC1=CC(=O)O[C@@H](/C=C/c2ccccc2)C1,Activity,[29],Active
same,Activity,PC-12 [30],Active
COc1ccc(/C=C/c2cc(OC)cc(=O)o2)cc1,Activity,[29],Active
same,Activity,PC-12 [30],Active
